Results: PMC9933483, “Tail-Approach-Based Design and Synthesis of Coumarin-Monoterpenes as Carbonic Anhydrase Inhibitors and Anticancer Agents” (ACS Omega, 2023)

Tests used:
[1] = tested on: HT-29 cell line; assay: Cell cytotoxicity, MTT assay; assay type: cell-based, human; conditions: for IC50: Homo sapiens, HT-29, MTT, 24 h
[2] = tested on: MCF-7 cell line; assay: Cell cytotoxicity, MTT assay; assay type: cell-based, human; conditions: Homo sapiens, MCF7, 24 h
[3] = tested on: PC-3 cell line; assay: Cell cytotoxicity, MTT assay; assay type: cell-based; conditions: Homo sapiens, 24 h
[4] = tested on: HEK293T cell line; assay: Cell cytotoxicity, MTT assay; assay type: cell-based; conditions: Homo sapiens, HEK-293T, 24 h, healthy cell line
[5] = tested on: CA IX; assay: Western blotting of CA IX protein expression in HT-29 cells; assay type: cell-based, human; conditions: western blot, hypoxia (200 μM CoCl2), 24 h, three doses
Experimental: (§1) CA IX and CA XII protein expressions were evaluated in treated and control HT-29 and MCF7 cells after hypoxia induction. Cells were seeded in a 6-well plate in DMEM/F12 (normoxic cells) or DMEM/F12 containing 200 μM CoCl2 (hypoxic and treated cells) in order to create hypoxia.[25] HT29 cells were treated with 14 (40, 10, and 1.25 μM), 23 (80, 20, and 1.25 μM), and 66 (80, 20, and 1.25 μM), and MCF7 cells were treated with 14 (40, 10, and 1.25 μM), 23 (80, 20, and 1.25 μM), and 63 (80, 20, and 1.25 μM) for 24 h at three different doses. After the treatment period, cells were washed with cold PBS and homogenized into Ripa cell lysis buffer (Santa Cruz, USA). Samples were prepared, electrophoresed, and transferred according to the literature.[25] The membranes were blocked in 5% fat-free milk (w/v) for 1 h at RT, incubated with the corresponding antibody at 4 °C overnight, and then incubated with the horseradish peroxidase (HRP)-labeled secondary antibody for 1 h at RT. The following antibodies were used: anti-CA IX (ab107257, Abcam), anti-CA XII (sc-374314, Santa Cruz), and anti-GAPDH (A19056, Abclonal). Finally, the membranes were stained with ECL reagents (LumiGLO, CST, USA), and then, imaging was performed with the Bio-Rad Chemidoc Imaging System. The bands were calculated with the Image Lab (Bio-Rad, USA) and analyzed with Graphpad Prism 9.00 (San Diego, CA, USA).

[6] = tested on: CA XII; assay: Western blotting of CA XII protein expression in HT-29 cells; assay type: cell-based, human; conditions: western blot, hypoxia (200 μM CoCl2), 24 h, three doses
Experimental: as §1

[7] = tested on: CA IX; assay: Western blotting of CA IX protein expression in MCF-7 cells; assay type: cell-based, human; conditions: western blot, hypoxia (200 μM CoCl2), 24 h, three doses
Experimental: as §1

[8] = tested on: CA XII; assay: Western blotting of CA XII protein expression in MCF-7 cells; assay type: cell-based, human; conditions: western blot, hypoxia (200 μM CoCl2), 24 h, three doses
Experimental: as §1

[9] = tested on: HT-29 cells; assay: Fluorescence microscopy, PI/Hoechst staining; assay type: cell-based, human; conditions: HT-29, 1.25 μM, 24 h
Experimental: HT-29 cells were stained with propidium iodide (PI) and Hoechst 33342 for observation of cell viability under the microscope. HT29 cells were treated with 14, 23, and 66 for 24 h at 1.25 μM concentration. After the treatment period cells were rinsed with PBS, fixed with ice-cold ethanol (95%) at −20 °C for 2 h, and then rinsed with PBS again. Cells were incubated with PI and Hoechst for 10 min and observed by using a fluorescence microscope (Zeiss Axio Observer Z1) with the appropriate excitation/detection filters.

[10] = target: hCA IX (Homo sapiens, UniProt Q16790); assay: biochemical

| Ki [10] | SMILES | IC50 [1] | IC50 [2] | IC50 [3] | IC50 [4] | CA IX expression in HT-29 cells [5] | CA XII expression in HT-29 cells [6] | CA IX expression in MCF-7 cells [7] | CA XII expression in MCF-7 cells [8] | apoptotic/dead cells by PI/Hoechst staining [9] | selectivity on HT-29 (cancer vs healthy cells) relative to dox ([1]; compared with dox) |
| --- | --- | --- | --- | --- | --- | --- | --- | --- | --- | --- | --- |
|  | Cc1ccc(C(C)C)c(OCc2cn(CCCCOc3ccc4ccc(=O)oc4c3)nn2)c1 [Compound 14, 7-(4-(4-((2-Isopropyl-5-methylphenoxy)methyl)-1H-1,2,3-triazol-1-yl)butoxy)-2H-chromen-2-one] | 25.1 ± 6.47 µM | 2.48 ± 0.69 µM | 53.8 ± 23.4 µM | 4.57 ± 0.33 µM | decreased | decreased | decreased | decreased | increased apoptotic/dead cells |  |
| 0.0019 µM | Cc1ccc(C(C)C)cc1OCc1cn(CCCCCCOc2ccc3ccc(=O)oc3c2)nn1 [Compound 23, 7-((6-(4-((5-Isopropyl-2-methylphenoxy)methyl)-1H-1,2,3-triazol-1-yl)hexyl)oxy)-2H-chromen-2-one] | 12.1 ± 3.63 µM | 9.1 ± 3.93 µM | 9.4 ± 3.35 µM | 8.82 ± 1.42 µM | decreased | decreased | decreased | decreased | increased apoptotic/dead cells | 3 fold |
| 1.3 µM | C=CCc1ccc(OCCCCCCCCCCOc2ccc3ccc(=O)oc3c2)c(OC)c1 [Compound 66, 7-((10-(4-Allyl-2-methoxyphenoxy)decyl)oxy)-2H-chromen-2-one] | 22 ± 5.63 µM | 17.8 ± 2.76 µM | 25.6 ± 3.47 µM | 18.3 ± 3.08 µM | decreased | decreased |  |  | increased apoptotic/dead cells |  |
